The source of these data is patent US20250288571A1 (Nested Therapeutics, Inc., priority 2024, published 2025).

Each structure is given as a SMILES string.

One assay concerns IPC298 cells. Nature of the assay: IPC298 Cell Titer Glow assay (CTG). The settings on record: Homo sapiens, IPC-298, 72 h, read-out: CTG IC50 (nM) Cell Line: IPC298.2.
The test system of assay [1] is pMEK. Description: pMEK AlphaLISA (MEK1 pS218/222), HCT116 cells, EGF stimulated. Type of assay: cell-based. The settings on record: Homo sapiens, HCT-116, 2 h compound, EGF 30 ng/ml 15 min. How it is done:
(§1) Determination of pMEK IC50s
(§2) A549 cells were cultured in F12K/10% FBS media (ATCC CAT #21127022) and were seeded at 10000 cells/well and HCT116 cells were cultured in McCoy's 5A/10% FBS media (Gibco Cat #30-2007) were seeded at 15000 cells/well in 384 microplates (Corning CAT #3765). Cells were incubated overnight in a TC incubator. Compounds were serially diluted and added to cells for 2 h in a TC incubator. At the end of the 2 h EGF (R&D Systems 236-EG-200) was added at a final EGF concentration of 30 ng/ml and incubated for 15 minutes at 37° C. in a TC incubator. AlphaLisa (Perkin Elmer) was performed according to manufacturer's instructions (Perkin Elmer CAT #ALPHA.SF ULTRA MEK1 PS218/222). The percent (%) inhibition at each concentration of compound is calculated based on and relative to the AlphaLISA signal in the HPE and ZPE control wells contained within each assay plate. The ZPE control wells contain cells and DMSO as 0% inhibition, and the HPE control wells only contain cells and control compound (Sellekchem Staurosporin CAT #S1421) as 100% inhibition.

Assay [2] concerns pERK Thr202/Tyr204. Description: pERK HTRF detection of pERK Thr202/Tyr204, A549 cells. The settings on record: Homo sapiens, 2 h compound. Type of assay: cell-based. On the procedure:
(§3) pERK: Detection of pERK Thr202/Tyr204
(§4) A549 cultured in F-12K/10% FBS were seeded at 10000 cells/well, and HCT116 cultured in McCoy's 5A/10% FBS were seeded at 15000 cells/well cells into Corning 384-well plates, respectively. Cells were incubated overnight in a TC incubator. Compounds were serially diluted and added to cells for 2 h in a TC incubator. Cells were then lysed according to manufacture protocol (Cisbio CAT #: 64AERPEG). Cell lysate was mixed with phospho-ERK (Thr202/Tyr204) antibody solution at 5:1 (v:v). Lysate and antibody mixture were incubated overnight at room temperature. HTRF signal was read at two different wavelengths (665 nm and 620 nm) on a compatible HTRF reader.

Assay [3] concerns pMEK. Nature of the assay: pMEK AlphaLISA (MEK1 pS218/222), A549 cells, EGF stimulated. Type of assay: cell-based. The settings on record: Homo sapiens, 2 h compound, EGF 30 ng/ml 15 min. How it is done: as §1, §2
The test system of assay [4] is pERK Thr202/Tyr204. Nature of the assay: pERK HTRF detection of pERK Thr202/Tyr204, HCT116 cells. The settings on record: Homo sapiens, HCT-116, 2 h compound. Type of assay: cell-based. How it is done:
as §3, §4

The next assay has as its system HCT116 cells. Description: HCT116 Cell Titer Glow assay (CTG). The settings on record: Homo sapiens, HCT-116, 72 h.

Method for IPC298 cells: HCT116 and IPC298 Cell Titer Glow Assay (CTG)
HCT116 cells and IPC298 cells were diluted with culture medium to the desired density 500 cells/well and 40 μL of cell suspension were added into each well of 384-well cell culture plate. […] The plates were covered and stored at room temperature for 30 minutes without shaking and then the plates were transferred into a 37° C. 5% CO2 incubator overnight.
A 10 mM solution in dimethyl sulfoxide (DMSO) was prepared for each test compound. A 3 fold, 10-point dilution was prepared from the stock solution. 40 nl of each solution in 100% DMSO was added to the 384-well plate and diluted to a final 0.1% DMSO final concentration. The plates were then incubated for 72 hours (for both cell lines) at 37° C.
CellTiter-Glo® 2.0 Reagent (Promega, G9242) was removed from the refrigerator and equilibrated at room temperature (23° C.) for 60 minutes. The plates were then removed from the incubator and allowed to equilibrate to room temperature. 30 μL CellTiter-Glo® 2.0 Reagent were added to the assay plates, and spun 1 min/1000 rpm. The plates were allowed to stand for about 20 minutes before being read on Envision using a standard luminescence readout. DMSO was employed as negative control (High control, HC) and 1 uM Staurosporine was employed as positive control (Low control, LC).
The percent (%) inhibition at each concentration of compound was calculated based on the signal in the negative and positive control wells contained within each assay plate.

Turning to `CCc1ccc(Nc2cncc(Cc3ccnc(NS(=O)(=O)NC)c3F)c2C)c(F)c1` [Example 10, N-(4-ethyl-2-fluorophenyl)-5-({3-fluoro-2-[(methylsulfamoyl)amino]pyridin-4-yl}methyl)-4-methylpyridin-3-amine], the IC50 in the assay with IPC298 cells, with pMEK [1], in the assay on pERK Thr202/Tyr204 [2], with pMEK [3], in the assay with pERK Thr202/Tyr204 [4] and with HCT116 cells (read-out: CTG IC50 (nM) Cell Line: HCT116.20) was less than 10 nM each time.

As for `CNS(=O)(=O)Nc1nccc(Cc2cncc(Nc3ccc(C#N)cc3F)c2C)c1F` [Example 11, 3-fluoro-4-{[5-({3-fluoro-2-[(methylsulfamoyl)amino]pyridin-4-yl}methyl)-4-methylpyridin-3-yl]amino}benzonitrile], the IC50 was 10 to 100 nM in the assay on IPC298 cells; less than 10 nM with pMEK [1]; less than 10 nM in the assay on pERK Thr202/Tyr204 [2]; 10 to 100 nM in the assay with pMEK [3]; less than 10 nM in the assay on pERK Thr202/Tyr204 [4]. In addition, in the assay with HCT116 cells (read-out: CTG % cell viability 1000 uM HCT116.20, HCT116 cells, 72 hours, 1000 uM, percent cells remaining after treatment), the viability at 1000 µM amounted to 31.8%.
